Data: paper PMC6792352, “Limited Chemical Structural Diversity Found to Modulate Thyroid Hormone Receptor in the Tox21 Chemical Library” (Environmental Health Perspectives, 2019)
Counter-ions that a name gives are not always drawn.

Assay: in vitro
Details: rat, gh3-tre-luc cells

Structure (SMILES)	CC50 at 24 h (AC50 (uM) modified / 1000) [µM]	CC50 at 24 h (AC50 (uM) modified / 1000, Tox21_110001=Tox21_111832, viability, 1 nM T3 present, 24 h) [µM]
CCCCCCCCCCCCCCCC(=O)OC/C=C(C)/C=C/C=C(C)/C=C/C1=C(C)CCCC1(C)C [Retinol palmitate]	> 50	–
O=C(O)c1cc(O)c2c(c1)C(=O)c1cccc(O)c1C2=O [Rhein]	> 90	–
C=C(C)CCCC(C)CCO (stereo not shown) [Rhodinol]	> 90	–
CCCC(=O)OC[C@@H](OC(=O)CCC)[C@@H](OC(=O)CCC)[C@H](Cn1c2nc(=O)[nH]c(=O)c-2nc2cc(C)c(C)cc21)OC(=O)CCC [Riboflavin tetrabutyrate]	> 50	–
Cc1cc2nc3c(=O)[nH]c(=O)nc-3n(C[C@H](O)[C@H](O)[C@H](O)CO)c2cc1C [Riboflavin]	> 90	–
NC[C@H]1O[C@H](O[C@H]2[C@H](O[C@@H]3O[C@H](CO)[C@@H](O)[C@H]3O)[C@@H](O)[C@H](N)C[C@@H]2N)[C@H](N)[C@@H](O)[C@@H]1O [Ribostamycin sulfate]	> 20	–
CO[C@H]1/C=C/O[C@@]2(C)Oc3c(C)c(O)c4c(O)c(cc(O)c4c3C2=O)NC(=O)/C(C)=C\C=C\[C@H](C)[C@H](O)[C@@H](C)[C@@H](O)[C@@H](C)[C@H](OC(C)=O)[C@@H]1C [Rifamycin SV sodium salt]	50.2	–
CO[C@H]1/C=C/O[C@@]2(C)Oc3c(C)c(O)c4c(O)c(c(/C=N/N5CCN(C6CCCC6)CC5)c(O)c4c3C2=O)NC(=O)/C(C)=C\C=C\[C@H](C)[C@H](O)[C@@H](C)[C@@H](O)[C@@H](C)[C@H](OC(C)=O)[C@@H]1C [Rifapentine]	22.8	–
CO[C@H]1/C=C/O[C@@]2(C)Oc3c(C)c(O)c4c(O)c(c5c(nc6cc(C)ccn65)c4c3C2=O)NC(=O)/C(C)=C\C=C\[C@H](C)[C@H](O)[C@@H](C)[C@@H](O)[C@@H](C)[C@H](OC(C)=O)[C@@H]1C [Rifaximin]	> 50	–
C1COC(NC(C2CC2)C2CC2)=N1 [Rilmenidine]	> 50	–
CC(N)[C@]12C[C@H]3C[C@H](C[C@H](C3)C1)C2 (stereo partly shown) [Rimantadine hydrochloride]	> 50	–
C[C@@H]1CN(CCCn2c3ccccc3c3ccccc32)C[C@H](C)N1 [Rimcazole dihydrochloride]	7.99	–
CCC(=O)[C@@]1(C)[C@H](C)C[C@H]2[C@@H]3CCC4=CC(=O)C=C[C@]4(C)[C@H]3[C@@H](O)C[C@@]21C [Rimexolone]	> 20	–
Cc1c(C(=O)NN2CCCCC2)nn(-c2ccc(Cl)cc2Cl)c1-c1ccc(Cl)cc1 [Rimonabant]	13.9	–
CCCCCOc1ccc(C2SC(=O)NC2=O)cc1OCC (stereo not shown) [Risarestat]	> 50	–
O=P(O)(O)C(O)(Cc1cccnc1)P(=O)(O)O [Risedronate sodium]	> 50	–
CCCOC(=O)c1ccc(N)cc1 [Risocaine]	> 50	–
Cc1nc2n(c(=O)c1CCN1CCC(c3noc4cc(F)ccc34)CC1)CCCC2 [Risperidone]	> 50	–
Cc1nc2sccn2c(=O)c1CCN1CCC(=C(c2ccc(F)cc2)c2ccc(F)cc2)CC1 [Ritanserin]	28.7	–
CCN(C)C(=O)Oc1cccc([C@H](C)N(C)C)c1 [Rivastigmine tartrate]	> 50	–
CN(C)CCc1c[nH]c2ccc(Cn3cncn3)cc12 [Rizatriptan]	> 50	–
Cc1cccc(C)c1N(CCCc1cccnc1)C(=O)C(C)N (stereo not shown) [Ro 22-9194]	> 50	–
O=C(CCCCCCCCc1cccnc1)N1CCC(C=C(c2ccccc2)c2ccccc2)CC1 [Ro 23-7637]	26.1	–
N=C(N/N=C/c1ccc(Cl)cc1)N/N=C/c1ccc(Cl)cc1 [Robenidine]	46.1	–
C=CC[N+]1([C@H]2C[C@H]3[C@@H]4CC[C@H]5C[C@H](O)[C@@H](N6CCOCC6)C[C@]5(C)[C@H]4CC[C@]3(C)[C@H]2OC(C)=O)CCCC1 [Rocuronium bromide]	> 50	–
CS(=O)(=O)c1ccc(C2=C(c3ccccc3)C(=O)OC2)cc1 [Rofecoxib]	> 50	–
c1ccc(C2(N3CCCC3)CCCCC2)cc1 [Rolicyclidine]	–	14.9
O=C1CC[C@@H](C(=O)N[C@H]2C[C@@H]2c2ccccc2)N1 [Rolicyprine]	> 50	–
